Key:
epidermal stem cells = experiment: Clonogenicity test on keratinocyte colonies derived from epidermal stem cells after oxidative stress; format: cell-based, human; conditions: 1 μg/ml for 24 h, then hydrogen peroxide 15 minutes, 7 days of culture; versus stressed controls without treatment
Source text: In order to study these epidermal stem cells in the basal cell layer of the epidermis, the test carried out, known as clonogenecity test, is based on the ability that the stem cells have of adhering, in vitro, to a culture support and of dividing so as to generate a large population of daughter cells grouped together in the form of colonies (Barrandon Y., Green H., Three clonal types of keratinocyte with different capacities for multiplication, […], 2302-2306 (1987), and Barrandon Y., Biologie des cellules souches épidermiques [Epidermal Stem Cell Biology], Ann. Dermatol. Venereol. Suppl. 2: 285-286, (1998)).
Analysis of the number and of the size of the colonies after culture makes it possible to characterize the epidermal stem cells.
The first step of isolating these cells consists in preparing a suspension of epidermal cells (Germain L et al., Improvement of human keratinocyte isolation and culture using thermolysin, Burns 19, 99-104 (1993)).
These cells are subsequently seeded onto feeder cells (3T3 fibroblasts), the mitotic activity of which is blocked with mitomycin. […]
After 7 days of culture, the cell colonies formed from each initial keratinocyte are coloured and counted by image analysis according to their size so as to evaluate the amount of stem cells of the initial culture. […]

[1] = test system: normal human keratinocytes (NHKs); experiment: Apoptosis of normal human keratinocytes after H2O2 oxidative stress (JC-1/TOTO-3 cytometry); format: cell-based; conditions: for % NHKs undergoing apoptosis: pretreated 24 h at 10 μg/ml, then 1 mM H2O2 for 3 h, nontreated H2O2 control 54.82, nontreated control 5.48
Method: The cells undergoing apoptosis (programmed cell death) are examined on normal human keratinocytes (NHKs) in culture.
The cells are pretreated or not pretreated (controls) for 24 h with the vitamin E derivatives in solution at 10 μg/ml.
The cells are subsequently subjected to oxidative stress (1 mM H2O2 for 3 h).
The proportion of cells undergoing apoptosis is determined by cytometry using the fluorescent probes JC-1 (measurement of mitochondrial transmembrane potential) and TOTO-3 (measurement of plasma membrane permeability).
The apoptotic cells are JC-1-negative (corresponding to a drop in the mitochondrial transmembrane potential) and TOTO-3-negative (corresponding to an absence of alteration of the plasma membrane).
This method has been published (Zullani et al. Cytometry part A, 2003, 54A: 100-108).

Compound | number of large colonies (>4 mm^2) compared with the controls (epidermal stem cells) | protective effect against oxidative stress for the keratinocytes (in words) ([1]; 10 μg/ml 24 h, 1 mM H2O2 3 h, compared with control, vitamin E and the other derivatives) | % NHKs undergoing apoptosis [1]
Cc1c(C)c2c(c(C)c1OP(=O)([O-])[O-])CCC(C)(CCCC(C)CCCC(C)CCCC(C)C)O2.[Na+].[Na+] (stereo not drawn) [sodium alpha-tocopheryl phosphate] | +104% |  | 
alpha-tocopheryl phosphate |  | significantly greater than that observed for the control, and also than that observed for vitamin E or the other derivatives | 32.79%
Cc1c(C)c2c(c(C)c1OC(=O)c1cc(O)ccc1O)CCC(C)(CCCC(C)CCCC(C)CCCC(C)C)O2 (stereo not drawn) [tocopheryl gentisate] |  |  | 60.67%
Cc1c(C)c2c(c(C)c1O)CC[C@@](C)(CCC[C@H](C)CCC[C@H](C)CCCC(C)C)O2 [alpha-tocopherol] |  |  | 58.82%
tocotrienol |  |  | 42.85%

From US20140072617A1, “METHOD FOR PREVENTING OR SLOWING DOWN THE APPEARANCE OF THE EFFECTS OF SKIN AGEING USING A TOCOPHERYL PHOSPHATE IN LIPOSOMES” (LVMH RECHERCHE, priority 2007, published 2014)
